The values that follow come from patent US7598294B2, “3,4-methylenedioxy-substituted chalcones as therapeutic agents” (Spear Therapeutics Limited, priority 2001, dated 2009).

Like-named read-outs stand apart in the source and are kept apart here.

Data set [1] in a line: MCF-7 cell line (non-induced) cytotoxicity assay (MTT). The format is cell-based. To be noted: human, MCF-7 breast tumour cells, non-induced (no TCDD), non-induced MCF-7 cells.
For data set [2], the system named is TCDD-induced MCF-7 cells. Kind of data set: TCDD-induced MCF-7 cell line cytotoxicity assay (MTT). To be noted: for Tumor Selectivity Differential Factor: IC50 MCF-7 cells / IC50 TCDD-induced MCF-7 cells, fold more toxic to "tumour" cells than to "normal" cells; for IC50: read-out: Cytotoxicity TCDD-induced MCF-7 Cells IC50, 10 nM TCDD for 24 hours, then 96 hours with compound, MTT.
Method: TCDD-Induced MCF-7 Cell Line Versus MCF-7 Cell Line Cytotoxicity Assay
1×10^3 cells were plated out in 100 μl medium per well of 96-well flat-bottomed plates (Fisher). […] The medium was then carefully aspirated and 100 μl fresh medium added. […] 50 μl MTT (Thiazol blue, Sigma) at 2 mg/ml in Dulbecco's phosphate buffered saline-A, was then added to each well for 3 hours: All medium was aspirated, then the formazan product generated by viable cells was solubilized with 150 μl DMSO. Plates were vortexed and the absorbance at 540 nm determined using a plate reader. […] All determinations were carried out in at least triplicate.

Data set [3] in a line: MCF-10A normal cell line cytotoxicity assay. To be noted: human, MCF-10A normal breast cells; without TCDD. The class given is cell-based, human.
Data set [4] deals with MDA-468 (Breast Tumor). Put plainly: MDA-468 tumour cell line cytotoxicity assay. To be noted: for Tumor Selectivity Differential Factor: IC50 MCF-10A / IC50 MDA-468, fold more toxic to cancer cells than to normal cells.
Method: MDA-468 Tumour Cell Line Versus MCF-10A Normal Cell Line Assay
This cell culture based assay is performed using the two cell lines MDA-468 and MCF-10A. The MDA-468 cell line is an advanced breast cancer cell line, whilst the MCF-10A cell line is a normal breast cell line.
The tumour selectivity differential factor(TSDF) is calculated by dividing the IC50 obtained from the MCF-10A data by the IC50 obtained from the MDA-468 data.
For data set [5], the system named is breast cancer MCF-7 cells. Kind of data set: Intrinsic activity of prodrug and hydroxylated metabolite in breast cancer MCF-7 cells. To be noted: Homo sapiens, MCF7; prodrug versus hydroxylated metabolite. The class given is cell-based.
The subject of data set [6] is MCF-10A (Normal Breast). Put plainly: MCF-10A normal cell line cytotoxicity assay. The class given is cell-based, human. To be noted: Homo sapiens, MCF-10A, read-out: IC50 against the normal cell line.
In data set [7] the test system is K562. To be noted: antitumour activity; cited from earlier work.
[8] abbreviates: read-out: Cytotoxicity MDA-468 (Breast Tumor) IC50, without TCDD.

For orientation: IC50 means the midpoint of a concentration-inhibition curve. The melting point is the temperature, or range, at which the solid turns liquid. For the compound `COc1ccc(OC)c(C(=O)/C=C/c2ccc3c(c2)OCO3)c1` [DMU-423, (E)-1-(3,4-methylenedioxyphenyl)-3-(2,5-dimethoxyphenyl)prop-1-en-3-one], the melting point was 101 °C. Also, the IC50 at 96 h in data set [1] was determined as 3500 nM. In data set [2], the “Tumor Selectivity Differential Factor” value is given as 13 and the half-maximal inhibitory concentration (IC50) is 260 nM.
For `COc1cc(OC)cc(C(=O)/C=C/c2ccc3c(c2)OCO3)c1` [DMU-403, (E)-1-(3,4-methylenedioxyphenyl)-3-(3,5-dimethoxyphenyl)prop-1-en-3-one], the IC50 at 96 h in data set [1] was 3500 nM. Moreover, in data set [2], the “Tumor Selectivity Differential Factor” value amounted to 6 and the IC50 is 570 nM.
Compound `CC/C(=C(\c1ccccc1)c1ccc(OCCN(C)C)cc1)c1ccccc1` [Tamoxifen, tamoxifen] gave an IC50 at 96 h in data set [3] of 6300 nM. Also, the “Tumor Selectivity Differential Factor” value in data set [4] was 1.6. The IC50 in data set [4] (setting [8]) was 4000 nM.
Compound `COc1ccc(C(=O)/C=C/c2ccc3c(c2)OCO3)c(OC)c1OC` [DMU-419, (E)-1-(3,4-methylenedioxyphenyl)-3-(2,3,4-trimethoxyphenyl)prop-1-en-3-one] came in with an IC50 at 96 h in data set [1] of 2800 nM. Moreover, in data set [2], the “Tumor Selectivity Differential Factor” value is given as 3 and the IC50 came to 840 nM.
Consider `COc1ccc(/C=C/C(=O)c2cc(OC)cc(OC)c2)cc1` [(E)-1-(4-methoxyphenyl)-3-(3,5-dimethoxyphenyl)prop-1-en-3-one], for which the IC50 in data set [5] turned out to be 690 nM.
For `COc1ccc(C(=O)/C=C/c2ccc3c(c2)OCO3)c(OC)c1` [DMU-407, (E)-1-(3,4-methylenedioxyphenyl)-3-(2,4-dimethoxyphenyl)prop-1-en-3-one], the melting point turned out to be 137 °C. Moreover, the IC50 at 96 h in data set [1] was found to be 7000 nM. Besides, in data set [2], the “Tumor Selectivity Differential Factor” value is recorded as 3 and the IC50 amounted to 2700 nM.
Compound `CN(Cc1cnc2nc(N)nc(N)c2n1)c1ccc(C(=O)N[C@@H](CCC(=O)O)C(=O)O)cc1` [Methotrexate, methotrexate] showed an IC50 at 96 h in data set [3] of 60 nM. Besides, the “Tumor Selectivity Differential Factor” value in data set [4] is recorded as 1.5. The IC50 in data set [4] (setting [8]) amounted to 40 nM.
As for `COc1cccc2c1C(=O)c1c(O)c3c(c(O)c1C2=O)C[C@@](O)(C(=O)CO)C[C@@H]3O[C@H]1C[C@H](N)[C@H](O)[C@H](C)O1` [Doxorubicin, doxorubicin], the concentration for half-maximal inhibition (IC50) at 96 h in data set [3] worked out at 0.3 nM. For the same compound, the “Tumor Selectivity Differential Factor” value in data set [4] was 0.1. Also, the “fold more toxic to normal cells than to cancer cells” value in data set [4] (MCF-10A versus MDA-468) is reported as 10 fold. Moreover, the IC50 in data set [4] (setting [8]) came out at 3 nM.
As for `COc1cc(C(=O)/C=C/c2ccc3c(c2)OCO3)cc(OC)c1OC` [DMU-135, (E)-1-(3,4-Methylenedioxyphenyl)-3-(3,4,5-trimethoxyphenyl)prop-1-en-3-one], the melting point is 135 °C. For the same compound, the IC50 at 96 h in data set [1] came out at 920 nM. Besides, the IC50 in data set [6] was 2300 nM. Further, in data set [4], the “Tumor Selectivity Differential Factor” value was 120. In addition, the IC50 in data set [4] (read-out: IC50 against the advanced tumour cell line, MDA-468, FIG. 2) is 20 nM. Further, in data set [2], the “Tumor Selectivity Differential Factor” value stood at 65.
Take `COc1cc(OC)cc(C(=O)/C=C/c2ccc(OC)c(O)c2)c1` [(E)-1-(3-Hydroxy-4-methoxyphenyl)-3-(3,5-dimethoxyphenyl) prop-1-en-3-one]: the IC50 in data set [5] was found to be 0.65 nM.
For the compound `CC(=O)/C=C/c1ccc(O)cc1` [(E)-1-(4′-hydroxyphenyl)but-1-en-3-one], in data set [7], the IC50 is 60000 nM.
